Measurements as given in patent US7803793B2, “Heterocyclic derived metalloprotease inhibitors” (Janssen Pharmaceutica NV, priority 2006, dated 2010).
Like-named read-outs stand apart in the source and are kept apart here.

Legend:
MMP-2 = molecular target: T1, MMP-2 (Homo sapiens, UniProt P08253); assay: MMP enzymatic assay (Trupoint peptide), MMP-2; type: biochemical
T1 construct: Human MMP-2 full length (aa 1-660)
T1 sequence (P08253 30-660): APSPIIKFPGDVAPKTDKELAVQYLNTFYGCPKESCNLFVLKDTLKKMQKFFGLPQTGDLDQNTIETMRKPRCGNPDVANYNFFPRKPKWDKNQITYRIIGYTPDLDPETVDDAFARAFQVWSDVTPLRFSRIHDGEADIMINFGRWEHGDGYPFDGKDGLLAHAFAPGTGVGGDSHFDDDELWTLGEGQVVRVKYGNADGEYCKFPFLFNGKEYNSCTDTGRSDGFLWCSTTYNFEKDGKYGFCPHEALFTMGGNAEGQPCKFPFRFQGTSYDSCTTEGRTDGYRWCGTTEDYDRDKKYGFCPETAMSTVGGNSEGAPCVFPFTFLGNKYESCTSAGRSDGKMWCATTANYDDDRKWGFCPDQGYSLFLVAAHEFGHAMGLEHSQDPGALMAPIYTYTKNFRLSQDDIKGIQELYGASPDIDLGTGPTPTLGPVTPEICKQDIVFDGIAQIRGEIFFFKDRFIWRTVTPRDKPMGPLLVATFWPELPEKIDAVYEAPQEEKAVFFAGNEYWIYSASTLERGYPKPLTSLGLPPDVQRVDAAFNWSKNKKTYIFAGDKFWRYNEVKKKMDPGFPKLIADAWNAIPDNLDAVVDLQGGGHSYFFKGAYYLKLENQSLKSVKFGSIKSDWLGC
Procedure: [formula] • 1) Prepare appropriate 1×MMP assay buffer from 10× stock. […] Need to prepare a 2.5× concentration stock (2.5 μM) to achieve this concentration in 50 μl. Dilute compound to 2.5 mM in 100% DMSO (a 1:40 dilution), then dilute the 2.5 mM compound to 2.5 μM (1:1000) into 1× assay buffer. Make 1 ml 2.5 μM compound in assay buffer. • 4) Fill the rows B through P of a 384-well plate with assay buffer+0.1% DMSO. • 5) Add 30 ul of the 2.5 μM compound in assay buffer to the top row of the plate, doing each compound in triplicate. The plate setup should be as follows, using GM6001 as plate reference compound:
• 6) Serially dilute 10 μl down the plate to achieve 1:3 dilutions in subsequent wells. After each dilution, change pipette tips to avoid compound carryover. Discard the remaining 10 μl after diluting into the final row. • 7) Prepare enzyme dilutions at 2.5× of final desired concentration (see below). Will need 10 ml enzyme solution per plate. Add enzyme to plate, 20 μl per well. Incubate 1 hr.
• 8) Dilute the 500 μM Trupoint peptide 1:1000 into assay buffer to achieve a 5× working stock of 500 nM. Prepare 5 ml total per plate. Add 10 ul of substrate to each well to achieve a final concentration of 100 nM in well. Also prepare background subtraction wells by adding 10 μl 5× substrate to 40 μl assay buffer per well, typically do ˜32 wells. • 9) Incubate assay at room temperature for 15 min. Read in plate reader.
(§1) Analysis Specifications • Calculate average background value from substrate/assay buffer wells • Subtract this from entire plate • Calculate average of DMSO wells for each enzyme. This is the positive control, 100% value. • For each well, calculate percent of control by dividing well value by the average DMSO value obtained above. • Paste percent of control values into Graphpad Prism 4.0.

MMP-9 = molecular target: T2, MMP-9 (Homo sapiens, UniProt P14780); assay: MMP enzymatic assay (Trupoint peptide), MMP-9; type: biochemical
T2 construct: Human MMP-9 catalytic domain (aa 107-446)
Procedure: [formula] • 1) Prepare appropriate 1×MMP assay buffer from 10× stock. […] The plate setup should be as follows, using GM6001 as plate reference compound:
• 6) Serially dilute 10 μl down the plate to achieve 1:3 dilutions in subsequent wells. After each dilution, change pipette tips to avoid compound carryover. […] Will need 10 ml enzyme solution per plate. Add enzyme to plate, 20 μl per well. Incubate 1 hr.
Prepare 5 ml total per plate. Add 10 ul of substrate to each well to achieve a final concentration of 100 nM in well. […] Read in plate reader.
as §1

T2 sequence (P14780 107-446): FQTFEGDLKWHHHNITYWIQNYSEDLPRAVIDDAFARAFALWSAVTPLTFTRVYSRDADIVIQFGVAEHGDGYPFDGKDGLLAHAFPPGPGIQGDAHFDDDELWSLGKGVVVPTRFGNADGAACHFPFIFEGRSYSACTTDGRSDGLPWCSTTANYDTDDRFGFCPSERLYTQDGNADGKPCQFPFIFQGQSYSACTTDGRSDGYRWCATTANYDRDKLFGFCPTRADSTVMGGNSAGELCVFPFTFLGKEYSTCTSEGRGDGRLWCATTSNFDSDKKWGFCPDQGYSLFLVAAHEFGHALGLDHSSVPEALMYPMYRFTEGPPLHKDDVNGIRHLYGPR

Compound	IC50 (MMP-2)	IC50 (MMP-9)	IC50 (MMP-2; read-out: MMP-2 nM IC50)
O=C1[C@H](NS(=O)(=O)c2ccc(Oc3ncc(C(F)(F)F)cc3Cl)cc2)CC=CCN1O [Compound 7, 4-(3-Chloro-5-trifluoromethyl-pyridin-2-yloxy)-N-(1-hydroxy-2-oxo-2,3,4,7-tetrahydro-1H-azepin-3-(R)-yl)-benzenesulfonamide]	> 1000 nM	> 1000 nM	
CCN(c1cccn(O)c1=O)S(=O)(=O)c1ccc(Oc2ccc(C)cc2)cc1 [Compound 27, N-Ethyl-N-(1-hydroxy-2-oxo-1,2-dihydro-pyridin-3-yl)-4-p-tolyloxy-benzene-sulfonamide]	6.5 nM	3.6 nM	
CS(=O)(=O)N(Cc1cccn(O)c1=O)c1ccc(Oc2ccc(OC(F)(F)F)cc2)cc1 [Compound 54, N-(1-Hydroxy-2-oxo-1,2-dihydro-pyridin-3-ylmethyl)-N-[4-(4-trifluoro-methoxy-phenoxy)-phenyl]-methanesulfonamide]	466 nM	11.1 nM	
O=S(=O)(c1ccc(Oc2ccccc2)cc1)N(Cc1ccccc1)c1cccn(O)c1=S [Compound 23, N-Benzyl-N-(1-hydroxy-2-thioxo-1,2-dihydro-pyridin-3-yl)-4-phenoxy-benzene-sulfonamide]		693 nM	4590 nM
O=C1[C@H](NS(=O)(=O)c2ccc(Oc3ccc(Cl)cc3)cc2)CC=C(CN2CCOCC2)CN1O [Compound 19, 4-(4-Chloro-phenoxy)-N-(1-hydroxy-6-morpholin-4-ylmethyl-2-oxo-2,3,4,7-tetrahydro-1H-azepin-3-(R)-yl)-benzenesulfonamide]	0.39 nM	0.77 nM	
O=c1c(O)cccn1CS(=O)(=O)c1ccc(Oc2ccc(OC(F)(F)F)cc2)cc1 [Compound 62, 3-Hydroxy-1-[4-(4-trifluoromethoxy-phenoxy)-benzenesulfonylmethyl]-1H-pyridin-2-one]	13.6 nM	4.91 nM	
COc1ccc(Oc2ccc(S(=O)(=O)C3CCCCN(O)C3=O)cc2)cc1 (stereo not shown) [Compound 70, 1-Hydroxy-3-[4-(4-methoxy-phenoxy)-benzenesulfonyl]-azepan-2-one]		31 nM	95.9 nM
O=c1c(O)cccn1CS(=O)(=O)c1ccc(Br)cc1 [Compound 65, 1-(4-Bromo-benzenesulfonylmethyl)-3-hydroxy-1H-pyridin-2-one]	> 1000 nM	> 1000 nM	
O=C1[C@H](NS(=O)(=O)c2ccc(Oc3ccncc3)cc2)CC=CCN1O [Compound 6, N-(1-Hydroxy-2-oxo-2,3,4,7-tetrahydro-1H-azepin-3-(R)-yl)-4-(pyridin-4-yloxy)-benzenesulfonamide]	2.67 nM	15.9 nM	
Cc1ccc(Oc2ccc(N(Cc3c(C)ccn(O)c3=O)S(C)(=O)=O)cc2)cc1 [Compound 48, N-(1-Hydroxy-4-methyl-2-oxo-1,2-dihydro-pyridin-3-ylmethyl)-N-(4-p-tolyloxy-phenyl)-methanesulfonamide]	> 1000 nM	457 nM	
O=C1[C@H](NS(=O)(=O)Cc2ccc(Cl)cc2)CC=CCN1O [Compound 15, (4-Chloro-phenyl)-N-(1-hydroxy-2-oxo-2,3,4,7-tetrahydro-1H-azepin-3-(R)-yl)-methanesulfonamide]	> 1000 nM	> 1000 nM	
Cc1ccc(C#Cc2ccc(N(Cc3cccn(O)c3=O)S(C)(=O)=O)cc2)cc1 [Compound 55, N-(1-Hydroxy-2-oxo-1,2-dihydro-pyridin-3-ylmethyl)-N-(4-p-tolylethynyl-phenyl)-methanesulfonamide]	> 10000 nM	> 10000 nM	
CN(c1cccn(O)c1=O)S(=O)(=O)c1ccc(Oc2ccc(Cl)cc2)cc1 [Compound 28, 4-(4-Chloro-phenoxy)-N-(1-hydroxy-2-oxo-1,2-dihydro-pyridin-3-yl)-N-methyl-benzenesulfonamide]	6.9 nM	3.28 nM	
O=C1[C@H](NS(=O)(=O)c2ccc(Oc3ccccn3)cc2)CC=CCN1O [Compound 8, N-(1-Hydroxy-2-oxo-2,3,4,7-tetrahydro-1H-azepin-3-(R)-yl)-4-(pyridin-2-yloxy)-benzenesulfonamide]	15.1 nM	22.9 nM	
O=c1c(N(CCN2CCSCC2)S(=O)(=O)c2ccc(Oc3ccc(Cl)cc3)cc2)cccn1O [Compound 98]		4.9 nM	6.1 nM
O=C1C(S(=O)(=O)c2ccc(-c3nc4cc(C(F)(F)F)ccc4[nH]3)cc2)CCCCN1O (stereo not shown) [Compound 74, 1-Hydroxy-3-[4-(5-trifluoromethyl-1H-benzoimidazol-2-yl)-benzenesulfonyl]-azepan-2-one]	> 1000 nM	> 1000 nM	
COc1ccc(Oc2ccc(S(=O)(=O)C3CCCN(O)C3=O)cc2)cc1 (stereo not shown) [Compound 72, 1-Hydroxy-3-[4-(4-methoxy-phenoxy)-benzenesulfonyl]-piperidin-2-one]		87.9 nM	167 nM
CC1=CC[C@@H](NS(=O)(=O)c2ccc(Oc3ccc(Cl)cc3)cc2)C(=O)N(O)C1 [Compound 20, (R)-4-(4-Chloro-phenoxy)-N-(1-hydroxy-6-methyl-2-oxo-2,3,4,7-tetrahydro-1H-azepin-3-yl)-benzenesulfonamide]	0.72 nM	0.68 nM	
CS(=O)(=O)N(Cc1cccn(O)c1=O)c1ccc(Oc2ccc(Cl)cc2)cc1 [Compound 44, N-[4-(4-Chloro-phenoxy)-phenyl]-N-(1-hydroxy-2-oxo-1,2-dihydro-pyridin-3-ylmethyl)-methanesulfonamide]	406 nM	126 nM	
CN([C@@H]1CC=CCN(O)C1=O)S(=O)(=O)c1ccc(Oc2ccc(Cl)cc2)cc1 [Compound 12, 4-(4-Chloro-phenoxy)-N-(1-hydroxy-2-oxo-2,3,4,7-tetrahydro-1H-azepin-3-(R)-yl)-N-methyl-benzenesulfonamide]	1.99 nM	1.32 nM	
O=C1[C@H](N(CCN2CCCCC2)S(=O)(=O)c2ccc(Oc3ccc(Cl)cc3)cc2)CC=CCN1O [Compound 13, 4-(4-Chloro-phenoxy)-N-(1-hydroxy-2-oxo-2,3,4,7-tetrahydro-1H-azepin-3-(R)-yl)-N-(2-piperidin-1-yl-ethyl)-benzenesulfonamide]	0.55 nM	0.21 nM	
CN(c1cccn(O)c1=O)S(=O)(=O)c1ccc(Oc2ccc(OC(F)(F)F)cc2)cc1 [Compound 39, N-(1-Hydroxy-2-oxo-1,2-dihydro-pyridin-3-yl)-N-methyl-4-(4-trifluoro-methoxy-phenoxy)-benzenesulfonamide]		1.85 nM	5.75 nM
4-(4-Chloro-phenoxy)-N-(1-hydroxy-2-oxo-2,3,4,7-tetrahydro-1H-azepin-3-(R)-yl)-benzenesulfonamide [Compound 1]		0.78 nM	0.81 nM
O=c1c(NS(=O)(=O)c2ccc(Oc3ccc(Cl)cc3)cc2)cccn1O [Compound 37, 4-(4-Chloro-phenoxy)-N-(1-hydroxy-2-oxo-1,2-dihydro-pyridin-3-yl)-benzene-sulfonamide]		316 nM	242 nM
Cc1ccc(C#Cc2ccc(S(=O)(=O)N(CCN3CCOCC3)C3CC=CCN(O)C3=O)s2)cc1 (stereo not shown) [Compound 91]	2.2 nM	0.6 nM	
CN1CCCN(O)C(=O)[C@@H]1CN(c1ccc(Oc2ccc(C(F)(F)F)cc2)cc1)S(C)(=O)=O [Compound 68, (3S)-1-Hydroxy-3-{N-methanesulfonyl-N-[4-(4-trifluoromethylphenoxy)-phenyl]amino}methyl-4-methyl-1,4-diazepan-2-one]	1250 nM	406 nM	
